This is an account of results in publication PMC10056348, “Photocaged Histone Deacetylase Inhibitors as Prodrugs in Targeted Cancer Therapy” (Pharmaceuticals, 2023).

For series [1], the system named is human ovarian cancer cell line A2780. On the set-up: method as in PMID 31762274. The conditions noted are these: cited from earlier work.
Series [2] deals with human squamous carcinoma cell line Cal27. On the set-up: method as in PMID 31762274. The conditions noted are these: cited from earlier work.
Series [3] relates to cisplatin-resistant Cal27CisR cells. Also on record: method as in PMID 31762274. The conditions noted are these: cited from earlier work.
Details of series [4]: method as in PMID 26603496. The settings on record: cited from earlier work.
The test system of series [5] is rodent cells. Also on record: method as in PMID 26603496. The settings on record: cited from earlier work.
Series [6] can be described thus: Photo-uncaging efficiency (HPLC after irradiation at 365 nm). It counts as physicochemical. The conditions noted are these: 10 min. As to the method:
Photolysis (photo-uncaging) of photocaged HDACi prodrugs was performed at room temperature using a UVP CL-1000 Crosslinker (Analytik Jena GmbH, Jena, Germany) equipped with five UV-A tubes (F8T5/BL368; λmax = 365 nm; Analytik Jena GmbH, Jena, Germany). Hereafter, this entire experimental set-up will be referred to as the “UV reactor”.
For the photo-uncaging efficiency testing, 10 µL of a 1.0 mM DMSO solution of the respective compound was irradiated for 10 min using the UV reactor described above. Subsequently, 90 µL acetonitrile was added, and the samples were analyzed via HPLC. The amount of photo-cleaved HDACi was determined by comparison with a five-point calibration curve of the respective parent inhibitor, using HPLC/UV detection at an appropriate wavelength (area under the curve; area mAu*min).
2. Photouncaging Experiments
Photolysis (photouncaging) of photocaged HDACi prodrugs was performed at room temperature using an UVP CL-1000 Crosslinker (Analytik Jena GmbH, Jena, Germany) equipped with five UV-A tubes (F8T5/BL368; λmax = 365 nm; Analytik Jena GmbH, Jena, Germany). Hereafter, this entire experimental set-up will be referred to as the "UV-reactor".
For the deprotection experiments 10 µL of a 1.0 mM DMSO-solution of the respective compound were irradiated for 10 min using the UV-reactor described above. Subsequently, 90 µL acetonitrile were added and the samples were analyzed via HPLC. The amount of photo-cleaved HDACi was determined by comparison with a five-point calibration curve of the respective parent inhibitor using HPLC/UV detection at an appropriate wavelength (area under the curve; area mAu*min).
Figure S5. Calibration curve of DDK-137 (I).

`CN(C)c1ccc(C(=O)N(CC(=O)NCc2ccccc2)Cc2ccc(C(=O)Nc3ccccc3N)cc2)cc1` [II, N-{4-[(2-aminophenyl)-carbamoyl]-benzyl}-N-[2-(benzylamino)-2-oxoethyl]-4-(dimethylamino)-benzamide]: the “antiproliferative effects in A2780” value in series [1] is recorded as “promising antiproliferative effects”. For the same compound, the “antiproliferative effects in Cal27” value in series [2] is recorded as “promising antiproliferative effects”. Further, the “reversal of cisplatin resistance” value in series [3] is reported as “capable of reversing cisplatin resistance”.
In the case of `O=C(CCCCCCC(=O)Nc1ccccc1)NO` [Vorinostat], in series [4], the “mutagenic activity in the Ames test” value is “mutagenic activity”. The “chromosomal aberrations in rodent cells” value in series [5] is given as “provoke chromosomal aberrations”.
Regarding `O=C(/C=C/c1cccc(S(=O)(=O)Nc2ccccc2)c1)NO` [belinostat], the “mutagenic activity in the Ames test” value in series [4] is given as “mutagenic activity”. In addition, the “chromosomal aberrations in rodent cells” value in series [5] is “provoke chromosomal aberrations”.
For `Cc1[nH]c2ccccc2c1CCNCc1ccc(/C=C/C(=O)NO)cc1` [panobinostat], the “mutagenic activity in the Ames test” value in series [4] was “mutagenic activity”. In series [5], the “chromosomal aberrations in rodent cells” value is reported as “provoke chromosomal aberrations”.
Broadly, the melting point is the temperature, or range, at which the solid turns liquid. The compound `COc1cc(COC(=O)Nc2ccccc2NC(=O)c2ccc(CN(CC(=O)NCc3ccccc3)C(=O)c3ccc(N(C)C)cc3)cc2)c([N+](=O)[O-])cc1OC` [pc-II, 4,5-Dimethoxy-2-nitrobenzyl-{2-[4-({N-[2-(benzylamino)-2-oxoethyl]-4-(dimethylamino)benzamido}methyl)benzamido]phenyl}carbamate] gave a melting point of 159 to 161 °C. In addition, the “behaviour under treatment with light” value in series [6] (DMSO) was “decomposed”. In series [6] (DMSO, HPLC with calibration curve), the “yield of photo-released parent inhibitor” value is listed as “did not release the parent HDACi II in significant quantities”. The “concentration of photo-released parent inhibitor after irradiation” value in series [6] (initial concentration 100 µM) was “not detected”.
